How the values were obtained:
hepatic gene expression [1] = assay: Real-time RT-PCR of hepatic mRNA after 13-week exposure: TCDD 100, PeCDF 200, PCB126 1,000 ng/kg/day, PCB153 1,000 μg/kg/day; assay type: in vivo, female Harlan Sprague-Dawley rats; conditions: liver, 13 weeks; average (± 1 SD) of three RNA pools; normalized to 18S RNA
Description: Tissues for this study were provided by the NTP ([NTP 2004a], [2004b], [2004c]) as part of a 2-year bioassay for relative carcinogenic potencies of dioxin-like chemicals. […] Toxicologic dose equivalence was based on the current World Health Organization TEF recommendations ([Van den Berg et al. 1998]). Subgroups of rats were sacrificed at 14, 31, and 53 weeks (corresponding to 13, 30, or 52 weeks of exposure), and target organs were removed, flash frozen in liquid nitrogen, and stored at −70°C for mechanistic studies.
Frozen hepatic tissue was disrupted by homogenization with a rotor stator homogenizer, and total RNA was isolated with Qiagen RNeasy columns Qiagen Inc., Valencia, CA). There were a total of six rats in each exposure group. Three pools of RNA were created from each exposure group (n = 2 rats per pool), similar to the experimental design of [Yechoor et al. (2002)]. Pooled total RNA was further purified using the Qiagen poly(A) RNA isolation kit. RNA integrity was assessed by the Agilent Bioanalyzer 2100 (Agilent Technologies, Palo Alto, CA). […] Poly(A) RNA was transformed into labeled cRNA by the Roswell Park Cancer Institute Microarray and Genomics Core Facility (Buffalo, NY). cRNA from each pool was fragmented and its quality evaluated with Affymetrix GeneChip Test3 arrays (Santa Clara, CA) by comparing 3′:5′ signal ratios of housekeeping genes. High-quality cRNA (3′:5′ signal ratio near 1) was subsequently hybridized to Affymetrix RGU34A GeneChips, and chips were scanned with the Affymetrix 428 scanner.
Reverse transcriptase reactions (80 μL) contained 20 μg total RNA, 0.5 mM dNTP mix, and 15 ng/μL random primers, 1 × first-strand buffer, 10 mM dithiothreitol, 27 U Rnasin RNase inhibitor (Promega, Madison, WI), and 800 U superscript reverse transcriptase (Invitrogen). A mixture containing total RNA, dNTPs, and random primers was heated to 65°C for 5 min to denature the RNA and then immediately placed on ice. The remaining components of the reaction mixture were then added to the RNA, and cDNA synthesis was performed at 42°C for 60 min. Reactions were terminated by heating to 70°C for 10 min.
PCR primers were selected from GenBank database sequences with Primer3 software ([Rozen and Skaletsky 2000]). […] Nonspecific mispriming was managed by a mispriming threshold of 10.0 in the rodent mispriming library.
Real-time PCR was performed with the SYBR Green PCR kit from Applied Biosystems (Foster City, CA) according to the manufacturer’s instructions. PCR reactions (25 μL) contained diluted cDNA, 1 × SYBR Green buffer, 3 mM MgCl2, 0.2 mM dNTP mix, 0.2 μM left and right primers, 10 nM fluorescein, and 1.1 U of Amplitaq Gold polymerase. The reaction was initiated by incubation at 95°C for 10 min and followed by 40 cycles of denaturation at 95°C for 15 sec and primer annealing/extension at 60°C for 1 min. Sample fluorescence was evaluated during the annealing/extension step. Upon completion of thermocycling, the specificity of each reaction was evaluated by melting analysis. Samples were heated to 95°C for 2 min and cooled to 55°C. The temperature was maintained at 55°C for 15 sec to analyze sample fluorescence, and the temperature was increased by increments of 0.5°C followed by 15 sec of fluorescence analysis for a total of 80 cycles.
The efficiency of each primer set was validated over a range of cDNA concentrations. […] After primer validation, PCR reactions were performed with a single cDNA concentration, and the threshold cycle (Ct) was determined for each reaction. The difference (ΔCt) between the threshold cycle for the target gene and endogenous control gene (18S RNA) was calculated for each sample, and the 18S normalized relative expression of each gene was calculated by the comparative method according to the Applied Biosystems’ User Bulletin No. 2 for the ABI Prism Sequence Detection System (Applied Biosystems), as described by [Imasato et al. (2002)].

hepatic gene expression [2] = conditions: liver, 13 weeks; average (± 1 SD) of three GeneChips
[3] = 13 weeks; mean ±SD of 10 rats; TCDD 100, PeCDF 200, PCB126 1,000 ng/kg/day, PCB153 1,000 μg/kg/day; ref NTP 2004a, 2004b, 2004c; cited from earlier work
liver [4] = conditions: 13 weeks, ref NTP 2004a, 2004b, 2004c, cited from earlier work; for Liver hypertrophy, incidence (number of rats of 10): TCDD 100, PeCDF 200, PCB126 1,000 ng/kg/day, PCB153 1,000 μg/kg/day; for Liver hypertrophy, severity in words: highest dose of each compound; for Liver hypertrophy, mean severity score: 1, minimal, 2, mild, 3, moderate, 4, marked
liver [5] = conditions: TCDD 100, PeCDF 200, PCB126 1,000 ng/kg/day, ref NTP 2004a, 2004b, 2004c; cited from earlier work
[6] = same doses, 1, minimal to 4, marked

## Clc1ccc(-c2cc(Cl)c(Cl)c(Cl)c2)cc1Cl [PCB126, 3,3′,4,4′,5-pentachlorobiphenyl]
Hepatic gene expression [1]
  C-CAM4 mRNA, average change vs vehicle, RT-PCR: 3.5 (2.6 to 4.7)
  CAP2 mRNA, average change vs vehicle, RT-PCR: 119.4 (104 to 137.2)
  CES3 mRNA, average change vs vehicle, RT-PCR: −1.4 (−1.5 to −1.3)
  CYP1B1 mRNA, average change vs vehicle, RT-PCR: 106.4 (98.2 to 115.3)
  CYP3A9 mRNA, average change vs vehicle, RT-PCR: −28.5 (−30.2 to −26.9)
  SERPIN7A mRNA, average change vs vehicle, RT-PCR: −8.4 (−12 to −5.9)
  SST mRNA, average change vs vehicle, RT-PCR: −1.5 (−1.6 to −1.4)
Hepatic gene expression [2]
  C-CAM4 mRNA, average change vs vehicle, Microarray: 25.1 (4 to 46.2)
  CAP2 mRNA, average change vs vehicle, Microarray: 7.6 (2 to 13.2)
  CES3 mRNA, average change vs vehicle, Microarray: −4 (−4.4 to −3.6)
  CYP1B1 mRNA, average change vs vehicle, Microarray: 317.1 (41.1 to 593.1)
  SERPIN7A mRNA, average change vs vehicle, Microarray: −4 (−4.9 to −3.1)
  SST mRNA, average change vs vehicle, Microarray: −6.4 (−9.4 to −3.4)
[3]
  Liver levels: 412.6 ± 73.5 ng/g
Liver [4]
  Liver hypertrophy, incidence (number of rats of 10): 10
  Liver hypertrophy, severity in words: minimal to mild
Liver [4]; same doses
  Liver hypertrophy, mean severity score: 1.7
  Diffuse fatty change, incidence (number of rats of 10): 0
  Multinucleated hepatocytes, incidence (number of rats of 10): 0
  Pigmentation, incidence (number of rats of 10): 0
Liver [5]
  liver findings after 2 years of exposure: cholangiocarcinoma, hepatocellular adenoma, toxic hepatopathy, multinucleated hepatocytes, diffuse fatty change, and liver pigmentation

## Clc1cc(Cl)c(-c2cc(Cl)c(Cl)cc2Cl)cc1Cl [PCB153, 2,2′,4,4′,5,5′-hexachlorobiphenyl]
Hepatic gene expression [1]
  C-CAM4 mRNA, average change vs vehicle, RT-PCR: −1.1 (−1.3 to 1)
  CAP2 mRNA, average change vs vehicle, RT-PCR: −1.3 (−1.5 to −1.1)
  CES3 mRNA, average change vs vehicle, RT-PCR: 2.4 (2.1 to 2.6)
  CYP1B1 mRNA, average change vs vehicle, RT-PCR: −1.2 (−1.6 to 1)
  CYP3A9 mRNA, average change vs vehicle, RT-PCR: −1.8 (−2.1 to −1.5)
  SERPIN7A mRNA, average change vs vehicle, RT-PCR: −1.2 (−1.5 to 1)
  SST mRNA, average change vs vehicle, RT-PCR: −3 (−3.5 to −2.5)
Hepatic gene expression [2]
  CES3 mRNA, average change vs vehicle, Microarray: 1.3 (1 to 1.6)
  CYP1B1 mRNA, average change vs vehicle, Microarray: 2.1 (1 to 3.2)
  CYP3A9 mRNA, average change vs vehicle, Microarray: 1.6 (0.8 to 2.4)
  SERPIN7A mRNA, average change vs vehicle, Microarray: 1.6 (1.3 to 1.9)
  SST mRNA, average change vs vehicle, Microarray: −9.5 (−10.1 to −8.9)
[3]
  Liver levels: 9,250 ± 2,061 ng/g
Liver [4]
  Liver hypertrophy, incidence (number of rats of 10): 9
  Liver hypertrophy, severity in words: minimal
Liver [4]; same doses
  Liver hypertrophy, mean severity score: 1.2
  Diffuse fatty change, incidence (number of rats of 10): 0
  Multinucleated hepatocytes, incidence (number of rats of 10): 0
  Pigmentation, incidence (number of rats of 10): 0

## Clc1cc2oc3c(Cl)c(Cl)c(Cl)cc3c2cc1Cl [PeCDF, 2,3,4,7,8-pentachlorodibenzofuran]
Hepatic gene expression [1]
  C-CAM4 mRNA, average change vs vehicle, RT-PCR: 2.5 (2.3 to 2.7)
  CAP2 mRNA, average change vs vehicle, RT-PCR: 20.2 (17.8 to 22.9)
  CYP1B1 mRNA, average change vs vehicle, RT-PCR: 59.7 (48.3 to 73.8)
  CYP3A9 mRNA, average change vs vehicle, RT-PCR: −4.2 (−5 to −3.5)
  SERPIN7A mRNA, average change vs vehicle, RT-PCR: −29.9 (−32 to −27.9)
  SST mRNA, average change vs vehicle, RT-PCR: −1.6 (−2 to −1.2)
Hepatic gene expression [2]
  C-CAM4 mRNA, average change vs vehicle, Microarray: 37.4 (25.5 to 49.3)
  CAP2 mRNA, average change vs vehicle, Microarray: 10.9 (4 to 17.8)
  CES3 mRNA, average change vs vehicle, Microarray: −2.8 (−3.8 to −1.8)
  CYP1B1 mRNA, average change vs vehicle, Microarray: 493.3 (310.1 to 676.5)
  CYP3A9 mRNA, average change vs vehicle, Microarray: −2.3 (−3.3 to −1.3)
  SERPIN7A mRNA, average change vs vehicle, Microarray: −2.7 (−3.6 to −1.8)
  SST mRNA, average change vs vehicle, Microarray: −8.3 (−11.1 to −5.5)
[3]
  Liver levels: 132.9 ± 47.4 ng/g
Liver [4]; same doses
  Multinucleated hepatocytes, incidence (number of rats of 10): 0

## Clc1cc2c(cc1Cl)Oc1cc(Cl)c(Cl)cc1O2 [TCDD, 2,3,7,8-tetrachlorodibenzo-p-dioxin]
Hepatic gene expression [1]
  C-CAM4 mRNA, average change vs vehicle, RT-PCR: 4.1 (3.8 to 4.4)
  CAP2 mRNA, average change vs vehicle, RT-PCR: 168.9 (147.9 to 192.9)
  CES3 mRNA, average change vs vehicle, RT-PCR: −4.8 (−5.2 to −4.4)
  CYP1B1 mRNA, average change vs vehicle, RT-PCR: 256 (236.3 to 277.3)
  CYP3A9 mRNA, average change vs vehicle, RT-PCR: −1024 (−1201.8 to −872.5)
  SERPIN7A mRNA, average change vs vehicle, RT-PCR: −26.6 (−30.2 to −23.4)
  SST mRNA, average change vs vehicle, RT-PCR: −36.8 (−46.4 to −29.1)
Hepatic gene expression [2]
  C-CAM4 mRNA, average change vs vehicle, Microarray: 133.4 (112.1 to 154.7)
  CAP2 mRNA, average change vs vehicle, Microarray: 53.6 (31.1 to 76.1)
  CES3 mRNA, average change vs vehicle, Microarray: −8.1 (−9.9 to −6.3)
  CYP1B1 mRNA, average change vs vehicle, Microarray: 676.3 (470.8 to 881.8)
  CYP3A9 mRNA, average change vs vehicle, Microarray: −35.4 (−53.4 to −17.4)
  SERPIN7A mRNA, average change vs vehicle, Microarray: −11.5 (−17.2 to −5.8)
  SST mRNA, average change vs vehicle, Microarray: −8 (−10.5 to −5.5)
[3]
  Liver levels: 18.3 ± 0.8 ng/g
Liver [4]
  Liver hypertrophy, incidence (number of rats of 10): 10
  Liver hypertrophy, severity in words: mild to moderate
Liver [4]; [6]
  Diffuse fatty change, mean severity score: 1.0
  Multinucleated hepatocytes, mean severity score: 1.0
Liver [4]; same doses
  Liver hypertrophy, mean severity score: 2.3
  Diffuse fatty change, incidence (number of rats of 10): 2
  Multinucleated hepatocytes, incidence (number of rats of 10): 3
  Pigmentation, incidence (number of rats of 10): 0
Liver [5]
  liver findings after 2 years of exposure: cholangiocarcinoma, hepatocellular adenoma, toxic hepatopathy, multinucleated hepatocytes, diffuse fatty change, and liver pigmentation

Source: paper PMC1247661 (Environmental Health Perspectives, 2004)
